Assay results as given in publication PMC6894882 (PLoS Neglected Tropical Diseases, 2019).
pEC50, pIC50: −log10 of the molar value. Where two headings read alike, the source gives them in different places. Marks after values point to notes of the source that are not given here.

Columns and labels:
EBOV in HeLa cells = assay type: cell-based, Ebola virus
Herpes Simplex Virus 1 = test: microbe, parasite or virus in culture; assay type: cell-based; set-up: SI50 / SI90: unit not given beside the values
Vaccinia Virus = test: microbe, parasite or virus in culture; assay type: cell-based; set-up: SI50 / SI90: unit not given beside the values
Influenza A virus H1N1 = test: microbe, parasite or virus in culture; assay type: cell-based; set-up: SI50: unit not given beside the values
MERS coronavirus = test: microbe, parasite or virus in culture; assay type: cell-based; set-up: SI50: unit not given beside the values
Poliovirus 3 = test: microbe, parasite or virus in culture; assay type: cell-based; set-up: SI50: unit not given beside the values
[1] = system: Respiratory synactial virus; test: organism not typed; assay type: cell-based; set-up: SI50: unit not given beside the values
Rift Valley fever virus = test: microbe, parasite or virus in culture; assay type: cell-based; set-up: SI50: unit not given beside the values
Tacaribe virus = test: microbe, parasite or virus in culture; assay type: cell-based; set-up: SI50: unit not given beside the values
[2] = system: Venezuelian equine encephalitis virus; test: organism not typed; assay type: cell-based; set-up: SI50: unit not given beside the values
West Nile virus = test: microbe, parasite or virus in culture; assay type: cell-based; set-up: SI50: unit not given beside the values
Yellow Fever virus = test: microbe, parasite or virus in culture; assay type: cell-based; set-up: SI50: unit not given beside the values
Zika virus [3] = test: microbe, parasite or virus in culture; assay type: cell-based; set-up: SI50: unit not given beside the values
Zika virus [4] = test: microbe, parasite or virus in culture; assay type: cell-based; set-up: SI50: unit not given beside the values; remark: listed apart in the source
[5] = system: Norovirus (human norovirus, GT1 strain); test: microbe, parasite or virus in culture; assay type: cell-based; set-up: SI90: unit not given beside the values
Murine norovirus = test: microbe, parasite or virus in culture; assay type: cell-based; set-up: SI50 / SI90: unit not given beside the values
Human cytomegalovirus = test: microbe, parasite or virus in culture; assay type: cell-based; set-up: SI50 / SI90: unit not given beside the values
Hepatitis C virus = test: microbe, parasite or virus in culture; assay type: cell-based; set-up: SI50 / SI90: unit not given beside the values
Hepatitis B virus = test: microbe, parasite or virus in culture; assay type: cell-based; set-up: SI50 / SI90: unit not given beside the values
[6] = pH 7.4
[7] = mouse, in vivo
Plasmodium falciparum = conditions: read-out: in vitro EC50; cited from earlier work
T. cruzi = conditions: mouse, in vivo; cited from earlier work
in vivo [8] = conditions: both, BALB/c, mouse, ip
in vivo [9] = conditions: BALB/c, mouse, ip
in vitro [10] = conditions: African green monkey
in vitro [11] = conditions: mouse, microsomes
in vitro [12] = conditions: guinea pig, microsomes
in vitro [13] = conditions: non-human primate, microsomes
in vitro [14] = conditions: human, microsomes
in vitro [15] = conditions: human, plasma, pH 7.4
[16] = in vivo, cited from earlier work
[17] = mouse, in vivo; cited from earlier work
CYP2C9 = CYP2C9 (Homo sapiens, UniProt P11712); test: biochemical
Sequence of CYP2C9 (P11712 whole entry): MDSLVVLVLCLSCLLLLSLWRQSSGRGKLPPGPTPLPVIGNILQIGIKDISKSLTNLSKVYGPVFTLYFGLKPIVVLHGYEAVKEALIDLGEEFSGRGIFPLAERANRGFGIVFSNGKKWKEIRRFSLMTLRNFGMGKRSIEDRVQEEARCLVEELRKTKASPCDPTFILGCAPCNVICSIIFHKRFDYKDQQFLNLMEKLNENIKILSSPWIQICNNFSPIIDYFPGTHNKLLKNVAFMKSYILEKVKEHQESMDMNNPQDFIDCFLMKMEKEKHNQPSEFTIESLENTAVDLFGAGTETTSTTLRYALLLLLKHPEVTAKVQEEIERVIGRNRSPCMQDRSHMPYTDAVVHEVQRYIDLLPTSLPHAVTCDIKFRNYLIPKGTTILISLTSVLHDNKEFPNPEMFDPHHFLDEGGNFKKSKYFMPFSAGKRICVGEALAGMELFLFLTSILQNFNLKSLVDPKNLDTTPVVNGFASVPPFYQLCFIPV

CYP2C19 = CYP2C19 (Homo sapiens, UniProt P33261); test: biochemical
Sequence of CYP2C19 (P33261 whole entry): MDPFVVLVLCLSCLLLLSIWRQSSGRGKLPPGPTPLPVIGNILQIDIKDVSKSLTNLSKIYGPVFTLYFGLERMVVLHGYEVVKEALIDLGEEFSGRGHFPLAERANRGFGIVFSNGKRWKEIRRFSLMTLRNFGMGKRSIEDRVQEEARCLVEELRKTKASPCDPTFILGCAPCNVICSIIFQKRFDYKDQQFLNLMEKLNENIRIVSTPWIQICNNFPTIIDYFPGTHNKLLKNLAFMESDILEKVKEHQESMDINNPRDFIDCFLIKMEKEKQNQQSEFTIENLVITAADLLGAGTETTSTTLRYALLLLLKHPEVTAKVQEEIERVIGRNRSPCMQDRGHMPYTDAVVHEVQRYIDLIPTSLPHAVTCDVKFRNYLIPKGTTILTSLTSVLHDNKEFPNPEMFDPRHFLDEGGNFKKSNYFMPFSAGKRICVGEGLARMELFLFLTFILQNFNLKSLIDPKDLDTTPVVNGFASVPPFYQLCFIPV

CYP2D6 = CYP2D6 (Homo sapiens, UniProt P10635); test: biochemical
Sequence of CYP2D6 (P10635 whole entry): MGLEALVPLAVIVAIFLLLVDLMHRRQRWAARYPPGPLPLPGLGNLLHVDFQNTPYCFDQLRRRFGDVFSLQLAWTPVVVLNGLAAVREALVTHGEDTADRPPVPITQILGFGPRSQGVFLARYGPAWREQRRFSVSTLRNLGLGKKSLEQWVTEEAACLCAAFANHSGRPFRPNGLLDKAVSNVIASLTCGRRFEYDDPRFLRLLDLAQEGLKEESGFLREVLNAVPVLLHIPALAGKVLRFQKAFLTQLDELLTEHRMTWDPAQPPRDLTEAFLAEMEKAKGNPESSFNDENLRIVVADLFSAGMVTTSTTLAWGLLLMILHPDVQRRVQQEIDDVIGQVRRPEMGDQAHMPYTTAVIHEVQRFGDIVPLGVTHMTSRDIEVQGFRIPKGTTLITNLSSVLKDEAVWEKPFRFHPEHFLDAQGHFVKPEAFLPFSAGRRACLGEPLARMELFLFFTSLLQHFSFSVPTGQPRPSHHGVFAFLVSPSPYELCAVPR

[18] = Hepatitis B virus, HepG2 2.2.15

## COc1ccc2nc3cc(Cl)ccc3c(Nc3cc(CN4CCCC4)c(O)c(CN4CCCC4)c3)c2n1 [Pyronaridine, 4-[(7-Chloro-2-methoxybenzo[b][1, 5]naphthyridin-10-yl)amino]-2,6-bis(1-pyrrolidinylmethyl)phenol phosphate (1:4)]
EBOV in HeLa cells
  SI: ~ 3
Herpes Simplex Virus 1
  SI50: <1
  SI90: <1
Herpes Simplex Virus 1; Human alphaherpesvirus 1, HFF
  pEC50: < 5.22
  EC90: > 6 µM
Vaccinia Virus
  SI50: <3
  SI90: <3
Vaccinia Virus; Orthopoxvirus vaccinia, HFF
  pEC50: < 5.92
  EC90: > 1.2 µM
Influenza A virus H1N1
  SI50: 1
Influenza A virus H1N1; Influenza A virus, H1N1, MDCK
  pEC50: 5.49
MERS coronavirus
  SI50: 1
MERS coronavirus; Middle East respiratory syndrome-related coronavirus, Vero 76
  pEC50: 5.49
Poliovirus 3
  SI50: 1
Poliovirus 3; Enterovirus C, Vero 76
  pEC50: 5.49
[1]
  SI50: 0
[1]; MA104
  pEC50: < 5.12
Rift Valley fever virus
  SI50: 1
Rift Valley fever virus; Rift Valley fever virus, Vero 76
  pEC50: 5.49
Tacaribe virus
  SI50: 0
Tacaribe virus; Mammarenavirus tacaribeense, Vero
  pEC50: < 5.49
[2]
  SI50: 1.8
[2]; Vero 76
  pEC50: 5.74
West Nile virus
  SI50: 0
West Nile virus; West Nile virus, Vero 76
  pEC50: < 4.62
Yellow Fever virus
  SI50: 1
Yellow Fever virus; Yellow fever virus, Vero 76
  pEC50: 5.49
Zika virus [3]
  SI50: 1
Zika virus [3]; Zika virus, Vero 76
  pEC50: 5.49
Zika virus [4]
  SI50: 1
Zika virus [4]; Zika virus, Huh-7
  pEC50: 5.49
[5]
  SI90: 10
[5]; Norovirus, GT1, HG23
  pEC50: 5.46
  EC90: 9.7 µM
Murine norovirus
  SI50: 1
  SI90: 1
Murine norovirus; Norwalk virus, RAW267.4
  pEC50: < 4.40
  EC90: > 40 µM
Human cytomegalovirus
  SI50: <3
  SI90: <3
Human cytomegalovirus; Human betaherpesvirus 5, HFF
  pEC50: < 5.92
  EC90: > 1.2 µM
Hepatitis C virus
  SI50: 1
  SI90: <1
Hepatitis C virus; Hepatitis C virus, Huh-7
  pEC50: 6.11
  EC90: 1.71 µM
Hepatitis B virus
  SI50: <1
  SI90: <1
Hepatitis B virus; [18]
  pEC50: 5.34
  EC90: > 100 µM
[6]
  abundance relative to parent drug (Mouse): 100%*
[7]
  clinical observations in PK study: ruffled fur and eye squinting
[7]; ip
  time of peak plasma levels: 0.25 and 1
Plasmodium falciparum
  pEC50: 7.87
T. cruzi
  efficacy rate: 85%
In vivo [8]
  MTD: 100 mg/kg
In vivo [9]; female, 5 mg/kg
  AUC(0-t): 257 ng·h/mL
  Cmax: 54 ng/mL
  Tmax: 4.98 min
In vivo [9]; female, 25 mg/kg
  AUC(0-t): 956 ng·h/mL
  Cmax: 160 ng/mL
In vivo [9]; male, 5 mg/kg
  AUC(0-t): 192 ng·h/mL
  Cmax: 44.4 ng/mL
In vivo [9]; male, 25 mg/kg
  AUC(0-t): 713 ng·h/mL
  Cmax: 115 ng/mL
In vivo [9]; male, 75 mg/kg
  AUC(0-inf): 33900 ng·h/mL
  AUC(0-t): 33000 ng·h/mL
  Cmax: 982 ng/mL
  half-life: 146 h
In vitro [10]
  CC50: 7.5 µM
In vitro [11]
  half-life: 2.88 h
  microsomal CLint: 4 µL/min/mg
In vitro [12]
  half-life: 0.74 h
  microsomal CLint: 15.6 µL/min/mg
In vitro [13]
  half-life: 2.33 h
  microsomal CLint: 4.9 µL/min/mg
In vitro [14]
  microsomal CLint: 4.1 µL/min/mg
In vitro [15]
  fraction unbound: 0.049
[16]; human, po, 400 mg
  t1/2: 241 h
  volume of distribution: 41.2 L/kg
[16]; human
  half-life elimination in whole blood: approximately 17 d
  t1/2 in humans: 195 to 251 h
[16]
  total radioactive half-life: 804 h
[17]
  LD50: 1342 mg/kg
CYP2C9
  pIC50: < 4.30
CYP2C19
  pIC50: < 4.30
CYP2D6
  pIC50: 5.65
